According to ChEMBL document CHEMBL1201862, “PubChem BioAssay data set” (2004):
Active and inactive are the calls of the source.

Tests used:
[1] = Luminescence Cell-Based Dose Retest to Confirm Inhibitors of Cancer Stem Cells. [Related pubchem assays (depositor defined):AID2717, AID2721]; assay type: functional, Homo sapiens; details: Homo sapiens
[2] = alpha-synuclein stem-loop luciferase translation blockers – H4 neuroglioma cells, luminescence, confirmation (AID 1988); assay type: functional, cell-based
[3] = target: T1, Protein RecA (Mycobacterium tuberculosis, UniProt P9WHJ3); assay: Fluorescence Cell-Free Homogeneous Dose Retest to Identify Inhibitors of RecA-Intein Splicing Activity. [Related pubchem assays (depositor defined):AID2097, AID2223, AID489010, AID492950]; assay type: functional
T1 sequence (P9WHJ3 whole entry): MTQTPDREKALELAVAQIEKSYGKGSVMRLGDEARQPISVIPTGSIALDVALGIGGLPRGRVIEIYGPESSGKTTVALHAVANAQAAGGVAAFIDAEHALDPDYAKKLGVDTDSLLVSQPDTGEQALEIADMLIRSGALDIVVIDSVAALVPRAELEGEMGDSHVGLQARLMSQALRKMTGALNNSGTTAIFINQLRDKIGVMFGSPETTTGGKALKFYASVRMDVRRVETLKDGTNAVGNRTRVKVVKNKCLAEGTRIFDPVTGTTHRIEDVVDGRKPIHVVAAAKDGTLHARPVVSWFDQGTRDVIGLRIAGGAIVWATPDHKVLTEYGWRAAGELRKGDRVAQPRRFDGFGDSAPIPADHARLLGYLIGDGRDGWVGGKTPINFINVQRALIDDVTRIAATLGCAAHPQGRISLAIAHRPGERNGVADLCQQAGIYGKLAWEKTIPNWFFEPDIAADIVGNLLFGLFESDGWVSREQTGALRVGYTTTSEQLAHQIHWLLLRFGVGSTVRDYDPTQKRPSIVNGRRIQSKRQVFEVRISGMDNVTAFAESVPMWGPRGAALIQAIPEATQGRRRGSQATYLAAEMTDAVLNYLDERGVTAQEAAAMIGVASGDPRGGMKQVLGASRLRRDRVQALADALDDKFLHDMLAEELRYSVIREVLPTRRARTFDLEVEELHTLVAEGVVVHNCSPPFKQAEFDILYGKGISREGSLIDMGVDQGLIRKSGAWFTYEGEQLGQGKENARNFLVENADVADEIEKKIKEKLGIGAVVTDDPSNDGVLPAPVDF

[4] = target: T2, Replicative DNA helicase DnaB (Mycobacterium tuberculosis, UniProt P9WMR3); assay: DnaB intein splicing inhibitors, dose response, biochemical, cell-free fluorescence (AID 449749); assay type: functional
T2 sequence (P9WMR3 whole entry): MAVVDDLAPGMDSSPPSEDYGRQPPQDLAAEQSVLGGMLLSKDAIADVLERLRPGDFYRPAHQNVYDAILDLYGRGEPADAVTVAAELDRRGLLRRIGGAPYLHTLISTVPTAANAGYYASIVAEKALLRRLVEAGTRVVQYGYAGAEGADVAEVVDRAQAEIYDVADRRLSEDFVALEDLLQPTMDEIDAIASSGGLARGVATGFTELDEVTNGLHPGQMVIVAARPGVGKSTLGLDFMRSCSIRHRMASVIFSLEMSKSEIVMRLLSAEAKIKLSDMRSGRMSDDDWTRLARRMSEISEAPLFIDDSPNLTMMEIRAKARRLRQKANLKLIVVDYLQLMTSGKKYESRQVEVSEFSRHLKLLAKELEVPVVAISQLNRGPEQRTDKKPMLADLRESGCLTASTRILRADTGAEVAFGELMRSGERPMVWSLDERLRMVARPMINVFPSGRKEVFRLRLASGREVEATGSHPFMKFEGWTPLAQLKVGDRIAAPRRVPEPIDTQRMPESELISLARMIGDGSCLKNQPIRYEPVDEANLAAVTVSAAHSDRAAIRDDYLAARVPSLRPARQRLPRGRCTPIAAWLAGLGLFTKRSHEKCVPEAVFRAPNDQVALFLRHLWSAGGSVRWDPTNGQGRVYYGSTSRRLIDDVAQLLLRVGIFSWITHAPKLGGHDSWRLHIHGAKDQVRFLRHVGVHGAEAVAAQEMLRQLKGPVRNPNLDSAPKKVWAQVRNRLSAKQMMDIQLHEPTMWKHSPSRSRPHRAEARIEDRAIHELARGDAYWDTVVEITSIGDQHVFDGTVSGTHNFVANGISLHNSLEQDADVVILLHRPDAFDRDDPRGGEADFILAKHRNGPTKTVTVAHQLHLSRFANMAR

[5] = system: Streptococcus sp. 'group A'; assay: Streptococcus pyogenes SK(-)GAS viability under kanamycin – luminescence, BacTiterGlo, confirmation, counter-screen for streptokinase expression inhibitor project, dose response (AID 1900); assay type: functional, organism-based
[6] = target: T3, Streptokinase A (Streptococcus pyogenes serotype M1, UniProt P10520); assay: viability-normalized secreted streptokinase activity reduction – plasminogen activation absorbance, OD405, dose response (AID 1914); assay type: functional, Streptococcus pyogenes M1 GAS;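 also: secreted streptokinase activity via plasminogen activation per viability signal from cell pellet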
T3 sequence (P10520 whole entry): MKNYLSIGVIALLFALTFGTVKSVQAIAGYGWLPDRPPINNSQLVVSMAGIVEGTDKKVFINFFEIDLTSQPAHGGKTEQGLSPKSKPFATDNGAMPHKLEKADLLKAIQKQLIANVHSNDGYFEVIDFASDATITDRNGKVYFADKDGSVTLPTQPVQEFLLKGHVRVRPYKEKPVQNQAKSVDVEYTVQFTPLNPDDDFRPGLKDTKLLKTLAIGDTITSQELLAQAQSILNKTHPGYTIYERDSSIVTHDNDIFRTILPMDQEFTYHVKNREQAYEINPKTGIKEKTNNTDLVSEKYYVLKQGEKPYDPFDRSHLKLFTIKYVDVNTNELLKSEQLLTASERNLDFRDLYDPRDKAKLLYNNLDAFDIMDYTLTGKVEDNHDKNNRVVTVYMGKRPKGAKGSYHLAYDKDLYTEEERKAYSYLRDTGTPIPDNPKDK

[7] = system: Streptococcus; assay: GAS UMAA2166 growth inhibition – luminescence, BacTiterGlo, counter-screen for streptokinase expression inhibitor project, dose response (AID 1915); assay type: functional, organism-based;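 also: potency for reduction of bacterial viability or growth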
[8] = target: Cytochrome P450 2C9 (Homo sapiens, UniProt P11712)
Chain of Cytochrome P450 2C9 (P11712 whole entry): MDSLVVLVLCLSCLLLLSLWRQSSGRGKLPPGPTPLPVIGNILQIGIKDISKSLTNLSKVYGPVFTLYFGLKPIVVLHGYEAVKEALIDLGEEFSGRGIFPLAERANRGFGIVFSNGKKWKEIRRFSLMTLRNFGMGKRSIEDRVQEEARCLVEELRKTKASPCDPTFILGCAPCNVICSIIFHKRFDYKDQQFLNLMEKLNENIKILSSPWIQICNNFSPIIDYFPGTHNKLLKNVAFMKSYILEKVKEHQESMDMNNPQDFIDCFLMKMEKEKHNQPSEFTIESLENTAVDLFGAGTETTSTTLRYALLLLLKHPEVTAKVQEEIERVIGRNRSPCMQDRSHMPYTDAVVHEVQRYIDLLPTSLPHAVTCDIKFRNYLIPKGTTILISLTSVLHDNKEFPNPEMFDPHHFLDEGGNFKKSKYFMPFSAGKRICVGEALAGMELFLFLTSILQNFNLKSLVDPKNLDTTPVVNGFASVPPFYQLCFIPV

[9] = target: Cytochrome P450 2C19 (Homo sapiens, UniProt P33261); assay: Cytochrome panel assay with activity outcomes. Panel member name: p450-cyp2c19 Compounds with AC50 equal or less than 10 uM are considered active; assay type: functional
Chain of Cytochrome P450 2C19 (P33261 whole entry): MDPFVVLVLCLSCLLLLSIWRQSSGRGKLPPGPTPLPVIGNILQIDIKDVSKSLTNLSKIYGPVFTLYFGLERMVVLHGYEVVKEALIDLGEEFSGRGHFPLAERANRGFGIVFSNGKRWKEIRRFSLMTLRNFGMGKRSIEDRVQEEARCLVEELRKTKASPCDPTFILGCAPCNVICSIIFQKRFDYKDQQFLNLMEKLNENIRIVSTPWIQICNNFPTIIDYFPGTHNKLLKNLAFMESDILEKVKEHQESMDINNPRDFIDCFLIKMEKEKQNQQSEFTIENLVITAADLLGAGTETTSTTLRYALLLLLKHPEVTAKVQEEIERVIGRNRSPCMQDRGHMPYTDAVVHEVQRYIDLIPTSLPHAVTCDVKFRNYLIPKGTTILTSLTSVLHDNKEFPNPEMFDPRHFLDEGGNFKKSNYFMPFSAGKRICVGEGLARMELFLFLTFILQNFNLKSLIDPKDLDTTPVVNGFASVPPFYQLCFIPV

[10] = NIH-3T3 fibroblast cytotoxicity, dose response, cytotoxicity control, cell-based, fluorescence, Alamar Blue, secondary assay (AID 2327); assay type: functional;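 also: NIH-3T3 mouse fibroblasts cultured with fluconazole at 8 µg/mL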
[11] = Luminescence Cell-Based Dose Response HTS to Identify Activators of Luciferase Translation or Activity in H4 […] Cells. [Related pubchem assays: 1829 (Project Summary), 1814 (Primary HTS)]; assay type: functional
[12] = system: H4; assay: Luminescence Cell-Based Dose Response HTS to Identify Activators of 5'UTR Stem-Loop Driven Prion Protein mRNA Translation in H4 Neuroglioblastoma Cells. [Related pubchem assays: 1829 (Project Summary), 1814 (Primary HTS)]; assay type: functional; details: Homo sapiens
[13] = system: INS1; assay: INS-1E survival protection against cytokine death – cell-based, luminescence, retest, dose response (AID 449756); assay type: functional; details: Rattus norvegicus;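 also: cell death triggered by IL-1 beta plus TNF-alpha plus IFN-gamma mixture; protective hits raise ATP signal compared with cytokine alone wells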

Row | SMILES | AC50 [1] | EC50 [3] | AC50 [4] | also measured
1 | NC(=O)CC(NC(=O)Cc1cccc2ccccc12)c1ccc(NC2CCCCCCC2)c([N+](=O)[O-])c1 (stereo not given) | 14.1 µM (active) |  |  | 
2 | CC(C)COc1ccc2[nH]c3c(c2c1)CCCC3=O |  |  |  | EC50 [2]: 10.6 µM (active)
3 | COc1ccc(C(=O)/C(=C/c2cccs2)c2nc3ccccc3o2)cc1 |  | > 380 µM (inactive) | > 380 µM (inactive) | 
4 | COc1ccccc1Oc1cc(C#N)c(C#N)cc1-n1nnc2ccccc21 |  | 3.77 µM (active) | 20.2 µM (active) | 
5 | O=c1cc(N2CCCCC2)c(-c2ccccc2)nn1Cc1ccc(Cl)cc1Cl | 1.65 µM (active) |  |  | EC50 [5]: 3.19 µM (active); EC50 [6]: > 150 µM (not active); EC50 [7]: 8.6 µM (active)
6 | Cn1c(N)c(C(=O)COC(=O)c2ccccc2C(=O)c2ccc(Cl)c([N+](=O)[O-])c2)c(=O)n(C)c1=O | 4.25 µM (active) |  |  | 
7 | CC(=O)Oc1ccc2c(=O)oc(-c3ccccc3C)nc2c1 |  | 37.8 µM (active) | > 380 µM (inactive) | 
8 | COc1ccc(-n2nc3c(N4CCC(C(=O)NCCc5ccccc5C)CC4)nnc(C)c3c2C)cc1 | 4.03 µM (active) |  |  | 
9 | CN1/C(=C\C(=O)Nc2ccc(Br)cc2)C(C)(C)c2ccccc21 | 5.09 µM (active) |  |  | 
10 | COc1cc(OC)cc(-c2nnc(SCC(=O)N(Cc3ccccc3)C(C)(C)C)o2)c1 | 0.618 µM (active) |  |  | 
11 | CC(O)CC(C(=O)NNc1ccccc1)C(=O)NNc1ccccc1 (stereo not given) | 0.489 µM (active) |  |  | 
12 | O=C(Nc1cc(C(F)(F)F)ccc1N1CCCCC1)c1ccc(Br)o1 | 4.94 µM (active) |  |  | AC50 [8]: 1.41 µM (inconclusive)
13 | CC(=O)NC1=NN(c2ccccc2)C(=O)C1 |  | 5.21 µM (active) | 33.5 µM (active) | AC50 [9]: inconclusive
14 | CCCc1[nH][nH]c(=O)c1C(c1ccccc1)C(C#N)C#N (stereo not given) |  | 4.19 µM (active) | 8.91 µM (active) | 
15 | Cc1ccc(CNC(=O)c2ccc(N(C)S(=O)(=O)c3ccccc3)cc2)cc1 |  | > 380 µM (inactive) | 53.4 µM (active) | 
16 | Cc1cc(C)cc(S(=O)(=O)c2cnc3ccccc3n2)c1 |  | 4.26 µM (active) | 20.2 µM (active) | 
17 | Clc1ccc(-c2c[n+](Cc3ccc(Br)cc3)c3n2CCCCC3)cc1 |  |  |  | EC50 [10]: > 150 µM (inconclusive)
18 | CCOCC(=O)NCc1ccc2c(c1)cc(C)n2C |  | 23.6 µM (active) | > 380 µM (inactive) | 
19 | COC(=O)CN1C(=O)C2(C(C#N)=C(N)Oc3c2c(C)nn3-c2ccccc2)c2ccccc21 (stereo not given) |  | 3.38 µM (active) | 7.38 µM (active) | 
20 | COc1cccc(C=O)c1OCCCOc1cccc2cccnc12 |  |  |  | EC50 [11]: 16.4 µM (active); EC50 [12]: 28.1 µM (active)

Row | SMILES | AC50 [1] | EC50 [3] | AC50 [4] | also measured
21 | COc1ccc(-c2cn(Cc3ccc(C(=O)c4ccccc4)cc3)nn2)cc1 |  |  |  | AC50 [13]: 9.37 µM (active); EC50 [11]: 90.4 µM (active); EC50 [12]: 21.2 µM (active)
22 | CC[C@@H]1CC=C[C@H]2[C@H]1C(=O)N(Cc1ccccc1)[C@H]2c1ccc(OC)c(Cl)c1 | 6.12 µM (active) |  |  | EC50 [5]: 6.67 µM (active); EC50 [6]: 4.05 µM (active); EC50 [7]: 16 µM (active)
23 | O=C(/C(=C\c1ccccc1)c1nc2ccccc2[nH]1)c1ccc(Cl)cc1 | 3.28 µM (active) |  |  | 
24 | CC1=NNC(=O)C1C(c1ccccc1)C1C(=O)NN=C1C (stereo not given) |  | 0.194 µM (active) | 0.383 µM (active) | 
25 | CC(=O)N(c1ccccc1)C(C)c1nc(C#N)c(C#N)nc1C (stereo not given) |  | 4.35 µM (active) | 24.5 µM (active) | 
26 | Cc1cc(C)c(OCCCCN2CCNCC2)c(C)c1 | 3.23 µM (active) |  |  | 
27 | COc1ccc(N2CCN(C(=O)c3ccc(Oc4ccc(C(F)(F)F)cn4)cc3)CC2)cc1 |  | > 380 µM (inactive) | 121 µM (active) | 
28 | Cc1c(C(=O)N2CCOCC2)sc2nc(-c3ccccc3)cn12 |  |  |  | EC50 [11]: 3.66 µM (active); EC50 [12]: 28.8 µM (active)
29 | COC(=O)Cc1n[nH]c2c1C1(CCSCC1)C(C#N)=C(N)O2 |  | 1.99 µM (active) | 10.8 µM (active) | 
30 | COc1ccc(-c2sc3ccccc3c2-c2ccc(O)cc2)cc1 | 3.35 µM (active) |  |  | 
31 | CCN(CC)S(=O)(=O)c1cccc(C(=O)N/N=C/c2cccc(O)c2O)c1 | 8.97 µM (active) |  |  | 
32 | Oc1cccc(/C=N/c2cccc3ccccc23)c1O |  | 10.1 µM (active) | 3.04 µM (active) | 
33 | COC(=O)Cc1cc(=O)n(-c2ccccc2)[nH]1 |  | 14 µM (active) | 17.6 µM (active) | 
34 | O=c1cc(-c2ccccc2)[nH]n1-c1nc2ccccc2s1 | 2.45 µM (active) |  |  | EC50 [5]: 2.43 µM (active); EC50 [6]: > 150 µM (not active); EC50 [7]: 10.3 µM (active)
35 | C/C(=N\NC(=O)Cc1cc(O)[nH]n1)c1cccc([N+](=O)[O-])c1 |  | 1.31 µM (active) | 2.73 µM (active) | 
36 | CO/C(O)=C1/C(C)=NC(=S)NC1c1ccc(OC(=O)c2ccco2)cc1 (stereo not given) |  | 14.4 µM (active) | 33.1 µM (active) | 
37 | COc1ccc(/C=N/NC(=O)c2cc(C34CC5CC(CC(C5)C3)C4)[nH]n2)cc1O | 1.16 µM (active) |  |  | 
38 | COc1ccc2cc(/C=N/NC(=O)c3ccc(CN(c4cccc(Cl)c4Cl)S(C)(=O)=O)cc3)c(Cl)nc2c1 | < 0.16 µM (active) |  |  | 
39 | COc1ccc(/C(=N/OC(C)=O)c2nccc3cc(OC)c(OC)cc23)cc1OC |  | 36.3 µM (active) | > 380 µM (inactive) | 
40 | CC(C)=CCCC1(C)C=Cc2c(ccc3c2[nH]c2cc(O)c(C)cc23)O1 (stereo not given) | 2.9 µM (active) |  |  | EC50 [5]: 2.31 µM (active); EC50 [7]: 6.72 µM (active)
